Measurements from the NIST ThermoML archive (doi:10.1016/j.fluid.2007.01.001).
± gives the expanded uncertainty stated by the source.

Legend:
[1] = 101 kPa, Liquid; for viscosity: Capillary tube (Ostwald / Ubbelohde) method; for speed of sound: Frequency=2 MHz, Linear variable-path acoustic interferometer; for mass density: Pycnometric method
[2] = xn = mol fraction of the nth substance listed; details: 101 kPa, Liquid, x1 = 1; for viscosity: Capillary tube (Ostwald / Ubbelohde) method; for speed of sound: Frequency=2 MHz, Linear variable-path acoustic interferometer; for mass density: Pycnometric method

SMILES	viscosity ([1]; 298.15 K) [mPa·s]	speed of sound ([1]; 298.15 K) [m/s]	mass density ([1]; 298.15 K) [kg/m3]	viscosity ([1]; 308.15 K) [mPa·s]	speed of sound ([1]; 308.15 K) [m/s]	mass density ([1]; 308.15 K) [kg/m3]	viscosity ([2]; 298.15 K) [mPa·s]	speed of sound ([2]; 298.15 K) [m/s]	mass density ([2]; 298.15 K) [kg/m3]	viscosity ([2]; 308.15 K) [mPa·s]	speed of sound ([2]; 308.15 K) [m/s]	mass density ([2]; 308.15 K) [kg/m3]
CCCCCC(C)O (configuration not stated) [2-heptanol]	5.088 ± 0.41	1314 ± 3	813.74 ± 0.69	3.683 ± 0.3	1274 ± 3	804.88 ± 0.7	–	–	–	–	–	–
CCCCC(C)O (configuration not stated) [2-hexanol]	4.105 ± 0.33	1290 ± 3	810.84 ± 0.7	2.92 ± 0.23	1255 ± 3	801.75 ± 0.71	–	–	–	–	–	–
CCCCCCC(C)O (configuration not stated) [2-octanol]	6.429 ± 0.52	1328 ± 3	817.08 ± 0.58	4.365 ± 0.35	1292 ± 3	809.89 ± 0.6	–	–	–	–	–	–
Cc1ccccc1 [toluene]	0.554 ± 0.044	1306 ± 3	862.18 ± 0.73	0.496 ± 0.04	1270 ± 3	852.79 ± 0.74	–	–	–	–	–	–
Cc1ccccc1 [toluene] + CCCCC(C)O	–	–	–	–	–	–	0.554 ± 0.044	1306 ± 3	862.18 ± 0.73	0.496 ± 0.04	1270 ± 3	852.79 ± 0.74
Cc1ccccc1 [toluene] + CCCCCC(C)O	–	–	–	–	–	–	0.554 ± 0.044	1306 ± 3	862.18 ± 0.73	0.496 ± 0.04	1270 ± 3	852.79 ± 0.74
Cc1ccccc1 [toluene] + CCCCCCC(C)O	–	–	–	–	–	–	0.554 ± 0.044	1306 ± 3	862.18 ± 0.73	0.496 ± 0.04	1270 ± 3	852.79 ± 0.74
